# Test results from ChEMBL document CHEMBL1151663, “Further explorations of unnatural alkaloids” (J Nat Prod, 1985).
# The source made the active and inactive calls. The rule behind the calls is not given here.
# Columns and labels:
# [1] = target: T1, Amine oxidase [flavin-containing] B (Homo sapiens, UniProt P27338); assay: Activity of human liver MAOB assessed as specific activity at 1 mM; settings: 1000 µM
# T1 sequence (P27338 whole entry): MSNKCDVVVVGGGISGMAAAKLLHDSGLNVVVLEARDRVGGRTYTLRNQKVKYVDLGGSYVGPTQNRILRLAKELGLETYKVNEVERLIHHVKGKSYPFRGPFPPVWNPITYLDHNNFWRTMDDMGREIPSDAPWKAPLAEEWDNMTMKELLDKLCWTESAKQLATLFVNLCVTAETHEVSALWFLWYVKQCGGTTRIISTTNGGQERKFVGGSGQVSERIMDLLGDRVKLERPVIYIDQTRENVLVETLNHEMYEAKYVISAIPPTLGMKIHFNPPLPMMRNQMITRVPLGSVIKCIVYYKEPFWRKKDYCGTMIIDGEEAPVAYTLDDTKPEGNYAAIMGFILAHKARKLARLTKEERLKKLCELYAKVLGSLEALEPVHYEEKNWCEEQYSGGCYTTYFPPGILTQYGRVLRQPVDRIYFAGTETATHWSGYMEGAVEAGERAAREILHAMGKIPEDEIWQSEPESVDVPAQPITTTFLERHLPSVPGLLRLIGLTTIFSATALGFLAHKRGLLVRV
# [2] = target: T2, MAO-B (amine oxidase [flavin-containing] B) (Homo sapiens, UniProt P27338); assay: Inhibition of human liver MAOB at 1 mM relative to MPTP
# T2 sequence (P27338 whole entry): T1 sequence (P27338 whole entry)
# Rattus norvegicus = species on record: Rattus norvegicus; assay: Displacement of [3H]colchicine from rat brain tubulin at 25 uM
# [3] = Toxicity in intramuscular dosed mouse; format: organism-based; settings: in vivo, im
# Mus musculus = species on record: Mus musculus; assay: Analgesic activity in mouse by hot plate test; format: functional, organism-based
Structure (SMILES),Activity [1] [nmol/min/mg],further results
CCN1CC=C(c2ccccc2)CC1,8.82,inhibition at 1000 µM [2]: 10.4%
C=CCN1CC=C(c2ccccc2)CC1,< 5,–
CCCN1CC=C(c2ccccc2)CC1,< 5,–
C1=C(c2ccccc2)CCN(CC2CC2)C1,< 5,–
CC1CN(C)CC=C1c1ccccc1 (centres undefined),11.4,inhibition at 1000 µM [2]: 13.4%
C/C=C/C(=O)N[C@H]1CCc2cc(OC)c(OC)c(OC)c2-c2ccc(OC)c(=O)cc21,–,inhibition (Rattus norvegicus): 67%; LD50 [3]: 3.4 µmol/kg
CN1CC=C(c2ccc(O)cc2)CC1,< 5,–
C1=C(c2ccccc2)CCN(Cc2ccccc2)C1,< 5,–
CC(C)N1CC=C(c2ccccc2)CC1,< 5,–
CN1CC=C(c2ccccc2)CC1,85.2,inhibition at 1000 µM [2]: 100%
C=CC(=O)N[C@H]1CCc2cc(OC)c(OC)c(OC)c2-c2ccc(OC)c(=O)cc21,–,inhibition (Rattus norvegicus): 82%; LD50 [3]: 17.4 µmol/kg
CN1CC=C(c2ccc(Cl)cc2)CC1,5.8,inhibition at 1000 µM [2]: 6.8%
CN1CC=CC(c2ccccc2)C1 (centres undefined),< 5,–
CN1CC[C@]2(C)c3cc(O)ccc3N(C)[C@H]12,–,Activity (Mus musculus): inactive
COc1cc2c(c(OC)c1OC)-c1ccc(OC)c(=O)cc1[C@@H](NC(C)=O)CC2 [COLCHICINE],–,LD50 [3]: 3 µmol/kg
CN1CC[C@@]2(C)c3cc(O)ccc3N(C)[C@@H]12,–,Activity (Mus musculus): Active
CCCC(=O)N[C@H]1CCc2cc(OC)c(OC)c(OC)c2-c2ccc(OC)c(=O)cc21,–,inhibition (Rattus norvegicus; tested as the 2H-labelled form): 79%
CC1=C(c2ccccc2)CCN(C)C1,5.3,inhibition at 1000 µM [2]: 6.2%
CN1CCC=C(c2ccccc2)C1,< 5,–
C1=C(c2ccccc2)CCNC1,58.6,inhibition at 1000 µM [2]: 68.8%
CCCCN1CC=C(c2ccccc2)CC1,< 5,–
